Usually inhibition stands for the share of the control response that was lost under treatment. A high value points to a strong effect. As usually defined, the IC50 is the point on the concentration scale where inhibition reaches its midpoint.

The target of experiment [1] is T1, Gonadotropin-releasing hormone receptor (Homo sapiens) (UniProt P30968).
T1 sequence (whole entry): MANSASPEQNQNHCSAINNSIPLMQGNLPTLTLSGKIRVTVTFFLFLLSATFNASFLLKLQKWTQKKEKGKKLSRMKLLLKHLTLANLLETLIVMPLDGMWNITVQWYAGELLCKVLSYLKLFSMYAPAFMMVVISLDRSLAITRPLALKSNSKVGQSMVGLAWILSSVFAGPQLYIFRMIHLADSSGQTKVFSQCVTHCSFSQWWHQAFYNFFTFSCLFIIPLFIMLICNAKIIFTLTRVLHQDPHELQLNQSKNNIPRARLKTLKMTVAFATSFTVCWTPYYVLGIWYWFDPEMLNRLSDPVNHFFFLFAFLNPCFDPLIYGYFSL
The experiment can be described thus: Displacement of [111In]-DOTA-Aun-(D-Lys6-GnRH) from human GnRH receptor after 3 hrs by gamma-counting. Particulars: concentration not given here.

The target in experiment [2] is T2, Gonadotropin-releasing hormone receptor (Homo sapiens, UniProt P30968).
T2 sequence (P30968 whole entry): T1 sequence (whole entry)
As to the kind of experiment: Displacement of [125I]-[DTrp6]-LH-RH from human GnRH receptor after 3 hrs by gamma counting.

With `CC(C)C[C@H](NC(=O)[C@@H](CCCCNC(=O)CCCCCCCCCCNC(=O)CN1CCN(CC(=O)O)CCN(CC(=O)O)CCN(CC(=O)O)CC1)NC(=O)[C@H](Cc1ccc(O)cc1)NC(=O)[C@H](CO)NC(=O)[C@H](Cc1c[nH]c2ccccc12)NC(=O)[C@H](Cc1cnc[nH]1)NC(=O)[C@@H]1CCC(=O)N1)C(=O)N[C@@H](CCCNC(=N)N)C(=O)N1CCC[C@H]1C(=O)NCC(N)=O`, in experiment [1], the inhibition worked out at 85%.

With `CC(C)C[C@H](NC(=O)[C@@H](CCCCNC(=O)CCCNC(=O)CN1CCN(CC(=O)O)CCN(CC(=O)O)CCN(CC(=O)O)CC1)NC(=O)[C@H](Cc1ccc(O)cc1)NC(=O)[C@H](CO)NC(=O)[C@H](Cc1c[nH]c2ccccc12)NC(=O)[C@H](Cc1cnc[nH]1)NC(=O)[C@@H]1CCC(=O)N1)C(=O)N[C@@H](CCCN=C(N)N)C(=O)N1CCC[C@H]1C(=O)NCC(N)=O`, the IC50 in experiment [2] came out at 134 nM.

The values above are taken from ChEMBL document CHEMBL2429854, “Influences of hydrocarbon linkers on the receptor binding affinities of gonadotropin-releasing hormone peptides” (Bioorg Med Chem Lett, 2013).
